Earlier results in PMC7751758, “Repurposing Sigma-1 Receptor Ligands for COVID-19 Therapy?” (Frontiers in Pharmacology, 2020).
Where “and” joins values, the source holds several entries; their conditions need not be identical. Equal entries are not always repeated. Entries after “also recorded” stand apart in the source; their conditions may differ.

Tests used:
Sigma-1 receptor = conditions: for IC50: read-out: Sigma-1 receptor affinity IC50; for Ki: read-out: Sigma-1 receptor affinity Ki
[1] = tested on: HCV infection of human hepatocarcinoma Huh-7 cells; conditions: absence of cytotoxicity at low micromolar and submicromolar concentrations; ref Gastaminza et al., 2010
HCV infection = conditions: without significantly reducing cell biomass; ref Mingorance et al., 2014
[2] = tested on: HCV-induced cytopathic effect on the engineered cell line n4mBid; conditions: leads of the cell protection screen; ref Chockalingam et al., 2010

Compound: CC(=O)[C@H]1CC[C@H]2[C@@H]3CCC4=CC(=O)CC[C@]4(C)[C@H]3CC[C@]12C [Progesterone]
- IC50 (Sigma-1 receptor): 1960 nM
- Ki (Sigma-1 receptor): 173 to 196 nM and 260 to 338 nM

Compound: (−)-Butaclamol
- IC50 (Sigma-1 receptor): 183 nM

Compound: COc1ccc(CCN2CCC(Nc3nc4ccccc4n3Cc3ccc(F)cc3)CC2)cc1 [Astemizole]
- Antiviral activity: Virus (EBOV): active
- Antiviral activity: Virus (SARS-CoV): in vitro activity
- Antiviral activity: Virus (MERS-CoV): in vitro activity

Compound: OCc1cc(C(O)CNCCCCCCOCCCCc2ccccc2)ccc1O (stereo not drawn) [Salmeterol]
- IC50 (Sigma-1 receptor): 151 nM
- reduction in HCV infection of Huh-7 cells, as compared to the vehicle DMSO control [1]: > 85%

Compound: CN1[C@@H]2CC[C@H]1C[C@@H](OC(c1ccccc1)c1ccccc1)C2 [Benztropine]
- Antiviral activity: Virus (EBOV): active
- Antiviral activity: Virus (SARS-CoV): in vitro activity; also recorded: SARS-CoV SARS-CoV-2
- Antiviral activity: Virus (MERS-CoV): in vitro activity
- reduction of HCV infection (HCV infection): more than one order of magnitude
- cellular toxicity (Ebola virus (EBOV)): < 30%
- viral inhibition (Ebola virus (EBOV)): > 50%

Compound: CC(C)(C)[C@]1(O)CCN2C[C@H]3c4ccccc4CCc4cccc(c43)[C@@H]2C1 [butaclamol]
- alleviation of HCV-induced cytopathic effect (n4mBid cell viability relative to untreated cells) [2]: increase n4mBid cell viability

Compound: O=[N+]([O-])c1ccc2nc(N3CCNCC3)ccc2c1 [Quipazine-6N]
- IC50 (Sigma-1 receptor): 1250 nM
- alleviation of HCV-induced cytopathic effect (n4mBid cell viability relative to untreated cells) [2]: increase n4mBid cell viability

Compound: O=C(c1ccc(OCCN2CCCCC2)cc1)c1c(-c2ccc(O)cc2)sc2cc(O)ccc12 [Raloxifene]
- IC50 (Sigma-1 receptor): 122 nM
- Ki (Sigma-1 receptor): 38 nM
- reduction of HCV infection (HCV infection): more than one order of magnitude
- alleviation of HCV-induced cytopathic effect (n4mBid cell viability relative to untreated cells) [2]: increase n4mBid cell viability

Compound: CC(=O)c1ccc2c(c1)N(CCCN1CCC(CCO)CC1)c1ccccc1S2 [Piperacetazine]
- IC50 (Sigma-1 receptor): 823 nM
- Antiviral activity: Virus (EBOV): active

Compound: CCN(CC)Cc1cc(Nc2ccnc3cc(Cl)ccc23)ccc1O [Amodiaquine]
- IC50 (Sigma-1 receptor): 355 nM
- Antiviral activity: Virus (SARS-CoV): in vitro activity
- Antiviral activity: Virus (MERS-CoV): in vitro activity

Compound: OC(CCN1CCCCC1)(c1ccccc1)C1CC2C=CC1C2 (stereo not drawn) [biperiden]
- alleviation of HCV-induced cytopathic effect (n4mBid cell viability relative to untreated cells) [2]: increase n4mBid cell viability

Compound: CNCCCN1c2ccccc2CCc2ccccc21 [Desipramine]
- IC50 (Sigma-1 receptor): 1190 nM
- Ki (Sigma-1 receptor): 1990 nM
- reduction of HCV infection (HCV infection): more than one order of magnitude

Compound: CN1CCCC(n2nc(Cc3ccc(Cl)cc3)c3ccccc3c2=O)CC1 (stereo not drawn) [Azelastine]
- IC50 (Sigma-1 receptor): 274 nM
- reduction in HCV infection of Huh-7 cells, as compared to the vehicle DMSO control [1]: > 85%

Compound: CN(C)CCCN1c2ccccc2Sc2ccc(C(F)(F)F)cc21 [Triflupromazine]
- IC50 (Sigma-1 receptor): 470 nM and 605 nM
- Ki (Sigma-1 receptor): 154 nM
- Antiviral activity: Virus (SARS-CoV): in vitro activity
- Antiviral activity: Virus (MERS-CoV): in vitro activity
- alleviation of HCV-induced cytopathic effect (n4mBid cell viability relative to untreated cells) [2]: increase n4mBid cell viability

Compound: NC(=NCc1ccc(Cl)cc1)SCCCc1cnc[nH]1 [Clobenpropit]
- IC50 (Sigma-1 receptor): 1080 nM
- reduction in HCV infection of Huh-7 cells, as compared to the vehicle DMSO control [1]: > 85%

Compound: Fc1ccc(-n2cc(CCCCN3CCC4(CC3)OCc3ccccc34)c3ccccc32)cc1 [Siramesine]
- IC50 (Sigma-1 receptor): 17 nM

Compound: Cc1nc2sccn2c(=O)c1CCN1CCC(=C(c2ccc(F)cc2)c2ccc(F)cc2)CC1 [Ritanserin]
- IC50 (Sigma-1 receptor): 190 nM
- alleviation of HCV-induced cytopathic effect (n4mBid cell viability relative to untreated cells) [2]: increase n4mBid cell viability

Compound: OCCOCCN1CCN(C(c2ccccc2)c2ccc(Cl)cc2)CC1 (stereo not drawn) [Hydroxyzine]
- IC50 (Sigma-1 receptor): 342 nM
- Ki (Sigma-1 receptor): 46 nM
- reduction of HCV infection (HCV infection): more than one order of magnitude

Compound: CN1CCN(CC/C=C2/c3ccccc3Sc3ccc(S(=O)(=O)N(C)C)cc32)CC1 [Thiothixene]
- IC50 (Sigma-1 receptor): 353 nM
- Antiviral activity: Virus (SARS-CoV): in vitro activity
- Antiviral activity: Virus (MERS-CoV): in vitro activity

Compound: Oc1cc2c(cc1O)C(c1ccccc1)CNCC2 (stereo not drawn) [SKF-38393]
- alleviation of HCV-induced cytopathic effect (n4mBid cell viability relative to untreated cells) [2]: increase n4mBid cell viability

Compound: CN1CCN(c2nc3cc(C(F)(F)F)ccc3n3cccc23)CC1.O=C(O)/C=C\C(=O)O.O=C(O)/C=C\C(=O)O [CGS 12066B]
- IC50 (Sigma-1 receptor): 1180 nM
- reduction in HCV infection of Huh-7 cells, as compared to the vehicle DMSO control [1]: > 85%

Compound: CN(C)CCCN1c2ccccc2CCc2ccc(Cl)cc21 [Clomipramine]
- Antiviral activity: Virus (EBOV): active
- Antiviral activity: Virus (SARS-CoV): in vitro activity; also recorded: SARS-CoV SARS-CoV-2
- Antiviral activity: Virus (MERS-CoV): in vitro activity
- reduction of HCV infection (HCV infection): more than one order of magnitude

Compound: CCN(CC)CCCC(C)Nc1c2ccc(Cl)cc2nc2ccc(OC)cc12 (stereo not drawn) [Quinacrine]
- IC50 (Sigma-1 receptor): 953 nM
- Antiviral activity: Virus (EBOV): active

Compound: CNC1CC(c2ccc(Cl)c(Cl)c2)c2ccccc21 (stereo not drawn) [Indatraline]
- IC50 (Sigma-1 receptor): 737 nM
- reduction in HCV infection of Huh-7 cells, as compared to the vehicle DMSO control [1]: > 85%

Compound: Cc1cc2c(s1)Nc1ccccc1N=C2N1CCN(C)CC1 [olanzapine]
- Sig-1R activity (Sigma-1 receptor): no significant Sig-1R activity

Compound: CN(C)CCOc1ccc(/C(=C(/CCCl)c2ccccc2)c2ccccc2)cc1 [Toremifene]
- IC50 (Sigma-1 receptor): 220 nM
- Antiviral activity: Virus (EBOV): active
- Antiviral activity: Virus (SARS-CoV): in vitro activity; also recorded: SARS-CoV SARS-CoV-2
- Antiviral activity: Virus (MERS-CoV): in vitro activity
- reduction in HCV infection of Huh-7 cells, as compared to the vehicle DMSO control [1]: > 85%

Compound: OCCN1CCN(CCCN2c3ccccc3Sc3ccc(C(F)(F)F)cc32)CC1 [Fluphenazine]
- Antiviral activity: Virus (EBOV): active
- Antiviral activity: Virus (SARS-CoV): in vitro activity; also recorded: SARS-CoV SARS-CoV-2
- Antiviral activity: Virus (MERS-CoV): in vitro activity
- reduction in HCV infection of Huh-7 cells, as compared to the vehicle DMSO control [1]: > 85%

Compound: CN(CCCN1c2ccccc2CCc2ccccc21)CC(=O)c1ccc(Cl)cc1 [Lofepramine]
- Sigma-1 receptor affinity, inhibition (Sigma-1 receptor; at 10 µM): 100% inh. at 10 µM
- Ki (Sigma-1 receptor): 2520 nM
- reduction in HCV infection of Huh-7 cells, as compared to the vehicle DMSO control [1]: > 85%

Compound: CN(C)CCOC(C)(c1ccccc1)c1ccc(Cl)cc1 (stereo not drawn) [Chlorphenoxamine]
- IC50 (Sigma-1 receptor): 1760 nM
- Antiviral activity: Virus (SARS-CoV): in vitro activity
- Antiviral activity: Virus (MERS-CoV): in vitro activity

Compound: (±)-Butaclamol
- IC50 (Sigma-1 receptor): 343 nM

Compound: CNCCC(Oc1ccc(C(F)(F)F)cc1)c1ccccc1 (stereo not drawn) [Fluoxetine]
- reduction of HCV infection (HCV infection): more than one order of magnitude

Compound: CN1CCC(=C2c3ccccc3C=Cc3ccccc32)CC1 [Cyproheptadine]
- reduction in HCV infection of Huh-7 cells, as compared to the vehicle DMSO control [1]: > 85%

Compound: CNCCCC1c2ccccc2C=Cc2ccccc21 [Protriptyline]
- IC50 (Sigma-1 receptor): 307 nM
- alleviation of HCV-induced cytopathic effect (n4mBid cell viability relative to untreated cells) [2]: increase n4mBid cell viability

Compound: CC(COc1ccccc1Cc1ccccc1)N1CCCCC1 (stereo not drawn) [Benproperine]
- IC50 (Sigma-1 receptor): 19 nM
- reduction in HCV infection of Huh-7 cells, as compared to the vehicle DMSO control [1]: > 85%

Compound: C[C@@H]1CN(CCCn2c3ccccc3c3ccccc32)C[C@H](C)N1 [Rimcazole, 9-[3-(cis-3,5-Dimethyl-1-piperazinyl)-propyl]carbazole]
- reduction in HCV infection of Huh-7 cells, as compared to the vehicle DMSO control [1]: > 85%

Compound: Clc1ccc(C(OCCN2CCCCC2)c2ccccc2)cc1 (stereo not drawn) [Cloperastine]
- IC50 (Sigma-1 receptor): 277 nM
- Ki (Sigma-1 receptor): 20 nM

Compound: COc1ccccc1OCCNCC(O)COc1cccc2[nH]c3ccccc3c12 (stereo not drawn) [Carvedilol]
- IC50 (Sigma-1 receptor): 1570 nM
- reduction in HCV infection of Huh-7 cells, as compared to the vehicle DMSO control [1]: > 85%

Compound: CNCCCC12CCC(c3ccccc31)c1ccccc12 [Maprotiline]
- Antiviral activity: Virus (EBOV): active

Compound: Clc1ccc2c(c1)CCc1cccnc1C2=C1CCNCC1 [Desloratadine]
- reduction in HCV infection of Huh-7 cells, as compared to the vehicle DMSO control [1]: > 85%

Compound: CN1CCC(=C2c3ccccc3CC(=O)c3sccc32)CC1 [Ketotifen]
- IC50 (Sigma-1 receptor): 3800 nM
- reduction in HCV infection of Huh-7 cells, as compared to the vehicle DMSO control [1]: > 85%

Compound: CCN(CC)CCOc1ccc(C(=C(Cl)c2ccccc2)c2ccccc2)cc1 [Clomiphene]
- Antiviral activity: Virus (EBOV): active
- reduction of HCV infection (HCV infection): more than one order of magnitude
- cellular toxicity (Ebola virus (EBOV)): < 30%
- viral inhibition (Ebola virus (EBOV)): > 50%

Compound: CC(C)N1CCN(c2ccc(OCC3COC(Cn4cncn4)(c4ccc(Cl)cc4Cl)O3)cc2)CC1 (stereo not drawn) [Terconazole]
- IC50 (Sigma-1 receptor): 159 nM
- Antiviral activity: Virus (EBOV): active
- Antiviral activity: Virus (SARS-CoV): in vitro activity; also recorded: SARS-CoV SARS-CoV-2
- Antiviral activity: Virus (MERS-CoV): in vitro activity

Compound: Cl.Cl.OCCN1CCN(CCC=C2c3ccccc3Sc3ccc(C(F)(F)F)cc32)CC1 (mixture of isomers) [Flupentixol]
- Antiviral activity: Virus (EBOV): active

Compound: OC(c1cc(C(F)(F)F)nc2c(C(F)(F)F)cccc12)C1CCCCN1 (stereo not drawn) [Mefloquine]
- IC50 (Sigma-1 receptor): 2560 nM
- Antiviral activity: Virus (SARS-CoV): in vitro activity
- Antiviral activity: Virus (MERS-CoV): in vitro activity

Compound: CN(C)CCCN1c2ccccc2CCc2ccccc21 [Imipramine]
- IC50 (Sigma-1 receptor): 529 nM
- Ki (Sigma-1 receptor): 343 nM
- reduction of HCV infection (HCV infection): more than one order of magnitude

Compound: C[C@@H]1C[C@@H]([C@H](O)CC2CC(=O)NC(=O)C2)C(=O)[C@@H](C)C1 [Cycloheximide]
- IC50 (Sigma-1 receptor): 1030 nM
- Antiviral activity: Virus (SARS-CoV): in vitro activity
- Antiviral activity: Virus (MERS-CoV): in vitro activity

Compound: COc1ccc(CN2CCN(C(c3ccc(F)cc3)c3ccc(F)cc3)CC2)c(OC)c1OC [Lomerizine]
- IC50 (Sigma-1 receptor): 37 nM
- Antiviral activity: Virus (EBOV): active

Compound: CC/C(=C(\c1ccccc1)c1ccc(OCCN(C)C)cc1)c1ccccc1 [Tamoxifen]
- Antiviral activity: Virus (SARS-CoV): in vitro activity; also recorded: SARS-CoV SARS-CoV-2
- Antiviral activity: Virus (MERS-CoV): in vitro activity
- reduction of HCV infection (HCV infection): more than one order of magnitude

Compound: O=C1NCN(c2ccccc2)C12CCN(CCCC(c1ccc(F)cc1)c1ccc(F)cc1)CC2 [Fluspirilene]
- IC50 (Sigma-1 receptor): 380 nM and 563 nM
- Ki (Sigma-1 receptor): 150 nM
- Antiviral activity: Virus (SARS-CoV): in vitro activity
- Antiviral activity: Virus (MERS-CoV): in vitro activity
